From PMC7338124, “Characterization of neuraminidase inhibitor-resistant influenza virus isolates from immunocompromised patients in the Republic of Korea” (Virology Journal, 2020)

Tests used:
[1] = test system: A/Korea/S0003/2019 A(H1N1)pdm09 neuraminidase, Variant (H275Y); assay type: biochemical, influenza A(H1N1)pdm09 virus
[2] = test system: A/Korea/S0002/2019 A(H1N1)pdm09 neuraminidase, Variant (H275Y); assay type: biochemical, influenza A(H1N1)pdm09 virus
[3] = test system: 2018–2019 isolates A(H3N2) neuraminidase, Wild; assay type: biochemical, influenza A(H3N2) virus
[4] = test system: 2018–2019 isolates A(H1N1)pdm09 neuraminidase, Wild; assay type: biochemical, influenza A(H1N1)pdm09 virus
[5] = test system: 2018–2019 isolates B neuraminidase, Wild; assay type: biochemical, influenza B virus

SMILES	NAI resistance (IC50 fold change) [1]	Susceptibility to NAI (in words) [1]	NAI resistance (IC50 fold change) [2]	Susceptibility to NAI (in words) [2]	NAI resistance (IC50 fold change) [3]	NAI resistance (IC50 fold change) [4]	NAI resistance (IC50 fold change) [5]
CC(=O)N[C@H]1[C@H]([C@H](O)[C@H](O)CO)OC(C(=O)O)=C[C@@H]1N=C(N)N [Zanamivir]	NI 2.56 fold	normally susceptible	NI 0.44 fold	normally susceptible	0.4–0.8 fold	0.3–0.7 fold	0.7–1.6 fold
CCC(CC)[C@H](NC(C)=O)[C@@H]1[C@H](O)[C@@H](C(=O)O)C[C@H]1N=C(N)N [Peramivir]	–	–	–	–	0.2–0.3 fold	0.1 fold	0.3–0.4 fold
CCOC(=O)C1=C[C@@H](OC(CC)CC)[C@H](NC(C)=O)[C@@H](N)C1 [Oseltamivir]	–	–	–	–	0.1–0.2 fold	0.1–1.2 fold	–
